# From patent US20200323954A1, “METHODS AND COMPOSITIONS FOR REDUCING GUT ISCHEMIA/REPERFUSION-INDUCED INJURY” (PanTheryx, Inc., priority 2019, published 2020)
# Entries after “also recorded” stand apart in the source; their conditions may differ.
# System: AGS cells
# Experiment: Cell viability (MTT) assay after hypoxia/reperfusion (H/R)
# Assay type: cell-based, human
# Conditions: for cell viability in the MTT assay: 4 h hypoxia + 24 h reperfusion
# Experimental: Hypoxia (Ischemia)/Normoxia (Reperfusion) (H/R) protocols for in vitro studies: For all experiments AGS, Caco-2 and RIE1 cells were set up in plates as described in specific methods. Cells were used at 70-80% confluence for cell injury/death assessment and as confluent monolayers for permeability studies. To induce “ischemia”, cells were placed in a hypoxic incubator (2% 02) for specified time and to mimic reperfusion, cells were placed back in a normoxic (21% 02) incubator for specified time. All treatments were duplicated in a second set of identical plates under normoxic conditions throughout the same test period as controls. To determine optimum conditions for the in vitro studies, pilot studies were performed.
# Cell viability (MTT) assay: Cell viability following H/R was assessed using an MTT assay (3-(4,5-dimethylthiazol-2-yl)-2,5-diphenyltetrazolium bromide) according to Marshall et al., Growth Regul. 1995; 5(2):69-84. The principal of the assay is that viable cells contain NAD(P)H-dependent oxidoreductase enzymes which reduce the MTT reagent to formazan which can be measured spectrophotometrically. At the end of the H/R period, 5 mg/ml MTT in PBS was added to each well of the 96 well plates and incubated at 37° C. for 4 hours, the medium was replaced with 150 μl of DMSO and the absorbance measured at 490 nm. Cell viability was expressed as percentage of the equivalent normoxic control, all results are expressed as mean+/−SEM of six wells.
# Example 1A: Dose response study: To examine the effect of PSTI on H/R-induced cell injury in vitro, cells were set up in 96 well plates and pre-incubated in SFM containing glucose, with or without 5, 10 or 15 μg/ml PSTI for 1 hour (i.e. PSTI pre-treatment). These concentrations of PSTI were chosen based on previous studies examining cell migration (Marchbank et al., 2007, Am J Pathol 171(5):1462-73). The medium was replaced with SFM without glucose and placed in the hypoxia incubator for 4 hours. At the end of the hypoxia period, medium was replaced with SFM containing glucose for 24 hours at normoxia for the reperfusion period.
# Example 1B: Efficacy of PSTI given pre-, during- or post-hypoxic period. The potential benefits of giving PSTI prior to, during or following the hypoxic period were compared. Cells were either pre-treated with 10 μg/ml PSTI for the 1 hour before hypoxia (Pre), treated with 10 μg/ml PSTI during hypoxia (During) or treated with 10 μg/ml PSTI during the reperfusion stage (Post). Cell Viability (MTT assay) and cell damage (LDH assay) were assessed. Cells were pre-treated with 10 μg/ml PSTI for the 1 hour before hypoxia (Pre), at the time of the start of hypoxic period (During), or added at the start of the reperfusion stage (Post). Cell Viability (MTT assay) and cell damage (LDH assay) were assessed.
substance,measurement,setting,value
pancreatic secretory trypsin inhibitor (DSLGREAKCYNELNGCTKIYDPVCGTDGNTYPNECVLCFENRKRQTSILIQKSGPC; listed as Homo sapiens) [PSTI],cell viability in the MTT assay,"AGS, PSTI 10 μg/ml 1 h before hypoxia (Pre), % of normoxic control, H/R without PSTI 52±2%",78±2%
same,cell viability in the MTT assay,"AGS, PSTI 10 μg/ml during hypoxia period",66±3%
same,cell viability in the MTT assay,"AGS, PSTI 10 μg/ml during the post-hypoxia period",49±1%
same,improvement of survival after H/R,"AGS, RIE1 and Caco-2 cells, hypoxia/reperfusion 4 h+24 h, PSTI 10 μg/ml prior or during hypoxic period, p<0.01",50%
same,optimum concentration for reducing cell death (MTT and LDH assays),"PSTI 5, 10 or 15 μg/ml given 1 h prior to H/R",10 µg/mL
same,effect on cell viability / cell death after H/R vs serum free medium,PSTI added before (or during) H/R,reduced hypoxia-reoxygenation-induced cell death; also recorded: significantly increased % cell viability
same,cell viability of cells not exposed to H/R,"normoxia, PSTI 10 microgram per ml",no change in viability or LDH; also recorded: no change in viability
